Experimental data taken from ChEMBL document CHEMBL3232977, “Medicinal chemistry optimization of antiplasmodial imidazopyridazine hits from high throughput screening of a SoftFocus kinase library: part 1” (J Med Chem, 2014).
Converted amounts (≈) assume the structure as drawn.

How the values were obtained:
Plasmodium falciparum [1] = tested on: Plasmodium falciparum
physchem [2] = settings: 0.01 M HCl, pH 2
[3] = Hepatic extraction ratio in human liver microsomes at 1 uM up to 60 mins by LC-MS analysis; format: ADME; settings: read-out: ERH
Plasmodium falciparum [4] = assay: microbe, parasite or virus in culture; settings: K1
Plasmodium falciparum [5] = assay: microbe, parasite or virus in culture; settings: NF54
Plasmodium berghei [6] = assay: Antimalarial activity against GFP-transfected Plasmodium berghei ANKA infected in mouse assessed as mean survival days at 40 mg/kg, po qd for 4 days; format: functional
Plasmodium berghei [7] = assay: Antimalarial activity against GFP-transfected Plasmodium berghei ANKA infected in mouse assessed as reduction of parasitemia at 40 mg/kg, po qd for 4 days; format: functional
[8] = Apparent Cmax in GFP-transfected Plasmodium berghei ANKA infected mouse at 40 mg/kg, po qd for 4 days; format: ADME, organism-based; set-up: dose 40 mg/kg, route oral; settings: in vivo
physchem [9] = settings: buffer, pH 2
Plasmodium falciparum [10] = assay: Antimalarial activity against Plasmodium falciparum infected in po dosed SCID mouse assessed as reduction of parasitemia administered qd for 4 days; format: functional; settings: 96 h
[11] = AUC (0 to infinity) in Sprague-Dawley rat at 3.6 mg/ml, po; format: ADME, organism-based; set-up: dose 3.6 mg/ml, time infinity, route oral; settings: plasma
[12] = Volume of distribution at steady state in Sprague-Dawley rat at 3.6 mg/ml, iv; format: ADME, organism-based; settings: in vivo, read-out: Vdss
[13] = Oral bioavailability in Sprague-Dawley rat at 3.6 mg/ml; format: ADME, organism-based; settings: in vivo
[14] = Apparent AUC in GFP-transfected Plasmodium berghei ANKA infected mouse at 40 mg/kg, po qd for 4 days; format: ADME, organism-based; set-up: dose 40 mg/kg, route oral; settings: in vivo
[15] = Cmax in Sprague-Dawley rat at 3.6 mg/ml, po; format: ADME, organism-based; set-up: dose 3.6 mg/ml, route oral; settings: in vivo
Plasmodium berghei [16] = assay: Antimalarial activity against GFP-transfected Plasmodium berghei ANKA infected in po dosed mouse assessed as reduction of parasitemia administered qd for 4 days; format: functional; settings: 96 h
[17] = Plasma total clearance in Sprague-Dawley rat at 3.6 mg/ml, iv; format: ADME, organism-based
[18] = Apparent half life in Sprague-Dawley rat at 3.6 mg/ml, iv; format: ADME, organism-based; settings: in vivo, read-out: t1/2(app) (converted)
[19] = Apparent half life in Sprague-Dawley rat at 3.6 mg/ml, po; format: ADME, organism-based; settings: in vivo, read-out: t1/2(app) (converted)
Plasma = assay: Average plasma concentration in GFP-transfected Plasmodium berghei ANKA infected mouse at 40 mg/kg, po qd for 4 days measured after 24 hrs; format: ADME, organism-based; set-up: dose 40 mg/kg, route oral; settings: in vivo
[20] = Tmax in Sprague-Dawley rat at 3.6 mg/ml, po; format: ADME, organism-based; settings: in vivo
[21] = AUC (0 to infinity) in Sprague-Dawley rat at 3.6 mg/ml, iv; format: ADME, organism-based; set-up: dose 3.6 mg/ml, route intravenous, time infinity; settings: plasma
[22] = Solubility of the compound in 0.01M HCl at pH 2.5; format: physicochemical
Plasmodium berghei [23] = settings: dose 30 mg/kg; route oral
Plasmodium berghei [24] = settings: dose 30 mg/kg; route oral; remark: listed apart in the source

Compound	solubility (physchem [2])	IC50 (Plasmodium falciparum [4])	IC50 (Plasmodium falciparum [5])	MSD (Plasmodium berghei [6])	MSD (Plasmodium berghei [7])	further results
CC(C)(C)c1cccc(-c2ccc3ncc(-c4ccc(S(C)(=O)=O)cc4)n3n2)c1	> 100 µg/mL					IC50 (Plasmodium falciparum [1]): ND(Insoluble)
COc1ccc(-c2ccc3ncc(-c4ccncc4)n3n2)cc1OC	> 100 µg/mL	14 nM	16 nM			hepatic extraction ratio at 1 h, 1 µM [3]: 0.86
CS(=O)(=O)Nc1cccc(-c2ccc3ncc(-c4ccncc4)n3n2)c1	> 100 µg/mL	15 nM	16 nM			hepatic extraction ratio at 1 h, 1 µM [3]: 0.82
CS(=O)(=O)c1ccc(-c2cnc3ccc(-c4cccc(S(N)(=O)=O)c4)nn23)cc1	> 100 µg/mL	4.4 nM	4.4 nM	4 days	<40 days	Cmax [8]: 20 nM
CN1CCN(C(=O)c2cccc(-c3ccc4ncc(-c5ccc(S(C)(=O)=O)cc5)n4n3)c2)CC1	> 100 µg/mL	5.5 nM	6.1 nM			solubility (physchem [9]): 50 µg/mL (≈ 105 µM)
CS(=O)(=O)c1ccc(-c2cnc3ccc(-c4cccc(S(C)(=O)=O)c4)nn23)cc1	> 100 µg/mL	6.3 nM	7.3 nM	7 days	98 days	ED90 (Plasmodium falciparum [10]): 1.5 mg/kg; AUC(0-inf) [11]: 18.9 µM·h; Vd [12]: 3.01 L/kg; bioavailability [13]: 77.7%; AUC at 96 h [14]: 27.8 µM·h; Cmax [15]: 1900 nM; ED50 (Plasmodium berghei [16]): 1.4 mg/kg; ED90 (Plasmodium berghei [16]): 15 mg/kg; clearance [17]: 5.77 mL/min/kg; half-life [18]: 429 min; half-life [19]: 425 min; Cave (Plasma): 1.2 µM; Cmax [8]: 2200 nM; Tmax [20]: 3 h; AUC(0-inf) [21]: 24.3 µM·h
CS(=O)(=O)c1ccc(-c2cnc3ccc(-c4cccc(C(=O)N5CCNCC5)c4)nn23)cc1	> 100 µg/mL	11 nM	15 nM	4 days	<40 days	solubility [22]: > 100 µg/mL; Cmax [8]: 10 nM
Cc1ccc(-c2ccc3ncc(-c4ccc(S(C)(=O)=O)cc4)n3n2)cc1C(F)(F)F	> 100 µg/mL	26 nM	32 nM	7 days	79 days	
CS(=O)(=O)c1ccc(-c2cnc3ccc(-c4cccc(C(=O)NCCO)c4)nn23)cc1	> 100 µg/mL	78 nM	99 nM			solubility (physchem [9]): 50 µg/mL (≈ 115 µM)
CS(=O)(=O)Nc1cccc(-c2ccc3ncc(-c4cncnc4)n3n2)c1	> 100 µg/mL	76 nM	93 nM			hepatic extraction ratio at 1 h, 1 µM [3]: 0.75
O[C@@H](c1cc(C(F)(F)F)nc2c(C(F)(F)F)cccc12)[C@H]1CCCCN1 (relative stereo) [(S,R)-MEFLOQUINE]		8.4 nM	12 nM			MSD (Plasmodium berghei [23]): 29 days; MSD (Plasmodium berghei [24]): 99.9 days
C[C@H]1[C@H](OC(=O)CCC(=O)O)O[C@@H]2O[C@@]3(C)CC[C@H]4[C@H](C)CC[C@@H]1[C@@]24OO3 [ARTESUNATE]		3 nM	4 nM			MSD (Plasmodium berghei [23]): 10 days; MSD (Plasmodium berghei [24]): 99 days
